# Reference: BindingDB's records for doi:10.1016/j.bmcl.2008.10.113 (Ucb Pharma, 2008)
# Target: Bcl-xL
# Test: Inhibition of GST fused Bcl-xL binding to biotinylated 16 mer Bak-BH3 peptide by HTRF-LANCE assay
row,SMILES,IC50 [µM]
1,"Cc1cc(C(=O)N(c2ccccc2)c2ccccc2)nn1-c1ccccc1C(=O)N1Cc2ccccc2C[C@H]1CN(C)C [1-(2-((S)-3-((dimethylamino)methyl)-1,2,3,4-tetrahydroisoquinoline-2-carbonyl)phenyl)-5-methyl-N,N-diphenyl-1H-pyrazole-3-carboxamide]",6.79
2,"CC(=O)NC[C@@H]1Cc2ccccc2CN1C(=O)c1ccccc1-n1nc(C(=O)N(c2ccccc2)c2ccccc2)cc1C [1-(2-((S)-3-(acetamidomethyl)-1,2,3,4-tetrahydroisoquinoline-2-carbonyl)phenyl)-5-methyl-N,N-diphenyl-1H-pyrazole-3-carboxamide]",9.69
3,"Cc1cc(C(=O)N(c2ccccc2)c2ccccc2)nn1-c1ccccc1C(=O)N1Cc2ccccc2C[C@H]1CN [1-(2-((S)-3-(aminomethyl)-1,2,3,4-tetrahydroisoquinoline-2-carbonyl)phenyl)-5-methyl-N,N-diphenyl-1H-pyrazole-3-carboxamide]",11.4
4,"COC[C@@H]1Cc2ccccc2CN1C(=O)c1ccccc1-n1nc(C(=O)N(c2ccccc2)c2ccccc2)cc1C [1-(2-((S)-3-(methoxymethyl)-1,2,3,4-tetrahydroisoquinoline-2-carbonyl)phenyl)-5-methyl-N,N-diphenyl-1H-pyrazole-3-carboxamide]",5.57
5,"Cc1c(Br)c(C(=O)N(c2ccccc2)c2ccccc2)nn1-c1ccccc1C(=O)N1Cc2ccccc2C[C@H]1CO [4-bromo-1-(2-((S)-3-(hydroxymethyl)-1,2,3,4-tetrahydroisoquinoline-2-carbonyl)phenyl)-5-methyl-N,N-diphenyl-1H-pyrazole-3-carboxamide]",2.41
6,"Cc1c(Cl)c(C(=O)N(c2ccccc2)c2ccccc2)nn1-c1ccccc1C(=O)N1Cc2ccccc2C[C@H]1CO [4-chloro-1-(2-((S)-3-(hydroxymethyl)-1,2,3,4-tetrahydroisoquinoline-2-carbonyl)phenyl)-5-methyl-N,N-diphenyl-1H-pyrazole-3-carboxamide]",2.28
7,"CNC[C@@H]1Cc2ccccc2CN1C(=O)c1ccccc1-n1nc(C(=O)N(c2ccccc2)c2ccccc2)cc1C [5-methyl-1-(2-((S)-3-((methylamino)methyl)-1,2,3,4-tetrahydroisoquinoline-2-carbonyl)phenyl)-N,N-diphenyl-1H-pyrazole-3-carboxamide]",12.6
8,"CCOC(=O)[C@@H]1Cc2ccccc2CN1C(=O)c1ccccc1-n1nc(C(=O)N(c2ccccc2)c2ccccc2)cc1C [(3S)-ethyl 2-(2-(3-(diphenylcarbamoyl)-5-methyl-1H-pyrazol-1-yl)benzoyl)-1,2,3,4-tetrahydroisoquinoline-3-carboxylate]",18
